# Assay results taken from patent US20140343000A1 (priority 2011, published 2014).
# Test system: recombinant NL4-3 virus (Renilla luciferase in nef, Gag P373S; NLRluc) in MT-2 cells
# Assay: whole plant or invertebrate
# Assay type: cell-based, HIV
# Conditions: Renilla, NL43
# Outline: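 Luciferase signal is the read-out: after 4-5 days of infection in the presence of serially diluted compound, MT-2 cells are lysed with a premix of lysis buffer, luciferase reagent and Stop & Glo substrate, and luminescence is read immediately.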
row,Compound,EC50 [nM]
1,"C=C(C)[C@@H]1CC[C@]2(NCCN3CCS(=O)(=O)CC3)CC[C@]3(C)[C@H](CC[C@@H]4[C@@]5(C)CC=C(c6ccc(C(=O)NS(=O)(=O)C7CC7)cc6)C(C)(C)[C@@H]5CC[C@]43C)[C@@H]12 [Example 164, N-(cyclopropylsulfonyl)-4-((1R,3aS,5aR,5bR,7aR,11aS,11bR,13aR,13bR)-3a-((2-(1,1-dioxido-4-thiomorpholinyl)ethyl)amino)-1-isopropenyl-5a,5b,8,8,11a-pentamethyl-2,3,3a,4,5,5a,5b,6,7,7a,8,11,11a,11b,12,13,13a,13b-octadecahydro-1H-cyclopenta[a]chrysen-9-yl)benzamide]",< 100
2,"C=C(C)[C@@H]1CC[C@]2(NCCNc3cccnn3)CC[C@]3(C)[C@H](CC[C@@H]4[C@@]5(C)CC=C(c6ccc(C(=O)O)cc6)C(C)(C)[C@@H]5CC[C@]43C)[C@@H]12 [Example 200, 4-((1R,3aS,5aR,5bR,7aR,11aS,11bR,13aR,13bR)-5a,5b,8,8,11a-pentamethyl-1-(prop-1-en-2-yl)-3a-(2-(pyridazin-3-ylamino)ethylamino)-2,3,3a,4,5,5a,5b,6,7,7a,8,11,11a,11b,12,13,13a,13b-octadecahydro-1H-cyclopenta[a]chrysen-9-yl)benzoic acid]",< 100

# Same assay, conditions: Renilla, NL43, luciferase activity in cells infected for 4-5 days with NLRluc recombinants, serial dilutions of inhibitor; class symbols (key in Table 1); read-out: EC50
row,Compound,EC50 [nM]
1,"C=C(C)[C@@H]1CC[C@]2(NCCN3CCN(S(C)(=O)=O)CC3)CC[C@]3(C)[C@H](CC[C@@H]4[C@@]5(C)CC=C(c6ccc(C(=O)O)cc6)C(C)(C)[C@@H]5CC[C@]43C)[C@@H]12 [Example B15, 4-((1R,3aS,5aR,5bR,7aR,11aS,11bR,13aR,13bR)-5a,5b,8,8,11a-pentamethyl-3a-((2-(4-(methylsulfonyl)piperazin-1-yl)ethyl)amino)-1-(prop-1-en-2-yl)-2,3,3a,4,5,5a,5b,6,7,7a,8,11,11a,11b,12,13,13a,13b-octadecahydro-1H-cyclopenta[a]chrysen-9-yl)benzoic acid]",< 100
2,"C=C(C)[C@@H]1CC[C@]2(NC(=O)N3CCN(CCO)CC3)CC[C@]3(C)[C@H](CC[C@@H]4[C@@]5(C)CC=C(c6ccc(C(=O)O)cc6)C(C)(C)[C@@H]5CC[C@]43C)[C@@H]12 [Example 38, 4-((1R,3aS,5aR,5bR,7aR,11aS,11bR,13aR,13bR)-3a-(4-(2-hydroxyethyl)piperazine-1-carboxamido)-5a,5b,8,8,11a-pentamethyl-1-(prop-1-en-2-yl)-2,3,3a,4,5,5a,5b,6,7,7a,8,11,11a,11b,12,13,13a,13b-octadecahydro-1H-cyclopenta[a]chrysen-9-yl)benzoic acid]",< 100
3,"C=C(C)[C@@H]1CC[C@]2(NCCC(F)(F)F)CC[C@]3(C)[C@H](CC[C@@H]4[C@@]5(C)CC=C(c6ccc(C(=O)O)cc6)C(C)(C)[C@@H]5CC[C@]43C)[C@@H]12 [Example 182, 4-((1R,3aS,5aR,5bR,7aR,11aS,11bR,13aR,13bR)-5a,5b,8,8,11a-pentamethyl-1-(prop-1-en-2-yl)-3a-((3,3,3-trifluoropropyl)amino)-2,3,3a,4,5,5a,5b,6,7,7a,8,11,11a,11b,12,13,13a,13b-octadecahydro-1H-cyclopenta[a]chrysen-9-yl)benzoic acid]",> 100
4,"C=C(C)[C@@H]1CC[C@]2(NC(=O)C(NC3CCS(=O)(=O)C3)C(C)C)CC[C@]3(C)[C@H](CC[C@@H]4[C@@]5(C)CC=C(c6ccc(C(=O)O)cc6)C(C)(C)[C@@H]5CC[C@]43C)[C@@H]12 (stereo partly drawn) [Example 112, benzoic acid, 4-[(1R,3aS,5aR,5bR,7aR,11aS,11bR,13aR,13bR)-2,3,3a,4,5,5a,5b,6,7,7a,8,11,11a,11b,12,13,13a,13b-octadecahydro-5a,5b,8,8,11a-pentamethyl-1-(1-methylethenyl)-3a-[[3-methyl-1-oxo-2-[(tetrahydro-1,1-dioxido-3-thienyl)amino]butyl]amino]-1H-cyclopenta[a]chrysen-9-yl]]",< 100
5,"C=C(C)[C@@H]1CC[C@]2(NCCN3CCN(S(=O)(=O)c4ccc(C)cc4)CC3)CC[C@]3(C)[C@H](CC[C@@H]4[C@@]5(C)CC=C(c6ccc(C(=O)O)cc6)C(C)(C)[C@@H]5CC[C@]43C)[C@@H]12 [Example B48, 4-((1R,3aS,5aR,5bR,7aR,11aS,11bR,13aR,13bR)-5a,5b,8,8,11a-pentamethyl-1-(prop-1-en-2-yl)-3a-((2-(4-tosylpiperazin-1-yl)ethyl)amino)-2,3,3a,4,5,5a,5b,6,7,7a,8,11,11a,11b,12,13,13a,13b-octadecahydro-1H-cyclopenta[a]chrysen-9-yl)benzoic acid]",< 100
6,"C=C(C)[C@@H]1CC[C@]2(NCc3ccnc(F)c3)CC[C@]3(C)[C@H](CC[C@@H]4[C@@]5(C)CC=C(c6ccc(C(=O)O)cc6)C(C)(C)[C@@H]5CC[C@]43C)[C@@H]12 [Example 132, 4-((1R,3aS,5aR,5bR,7aR,11aS,11bR,13aR,13bR)-3a-((2-fluoropyridin-4-yl)methylamino)-5a,5b,8,8,11a-pentamethyl-1-(prop-1-en-2-yl)-2,3,3a,4,5,5a,5b,6,7,7a,8,11,11a,11b,12,13,13a,13b-octadecahydro-1H-cyclopenta[a]chrysen-9-yl)benzoic acid]",< 100
7,"C=C(C)[C@@H]1CC[C@]2(NCCN3CCOCC3)CC[C@]3(C)[C@H](CC[C@@H]4[C@@]5(C)CC=C(c6ccc(C(=O)O)c(F)c6)C(C)(C)[C@@H]5CC[C@]43C)[C@@H]12 [Example A3, 2-fluoro-4-((1R,3aS,5aR,5bR,7aR,11aS,11bR,13aR,13bR)-5a,5b,8,8,11a-pentamethyl-3a-(2-morpholinoethylamino)-1-(prop-1-en-2-yl)-2,3,3a,4,5,5a,5b,6,7,7a,8,11,11a,11b,12,13,13a,13b-octadecahydro-1H-cyclopenta[a]chrysen-9-yl)benzoic acid]",< 100
8,"C=C(C)[C@@H]1CC[C@]2(NCCN3CCN(S(=O)(=O)CS(C)(=O)=O)CC3)CC[C@]3(C)[C@H](CC[C@@H]4[C@@]5(C)CC=C(c6ccc(C(=O)O)cc6)C(C)(C)[C@@H]5CC[C@]43C)[C@@H]12 [Example B42, 4-((1R,3aS,5aR,5bR,7aR,11aS,11bR,13aR,13bR)-5a,5b,8,8,11a-pentamethyl-3a-((2-(4-(((methylsulfonyl)methyl)sulfonyl)piperazin-1-yl)ethyl)amino)-1-(prop-1-en-2-yl)-2,3,3a,4,5,5a,5b,6,7,7a,8,11,11a,11b,12,13,13a,13b-octadecahydro-1H-cyclopenta[a]chrysen-9-yl)benzoic acid]",< 100
9,"C=C(C)[C@@H]1CC[C@]2(NCCCN3CCCC3=O)CC[C@]3(C)[C@H](CC[C@@H]4[C@@]5(C)CC=C(c6ccc(C(=O)O)c(F)c6)C(C)(C)[C@@H]5CC[C@]43C)[C@@H]12 [Example A5, 2-fluoro-4-((1R,3aS,5aR,5bR,7aR,11aS,11bR,13aR,13bR)-5a,5b,8,8,11a-pentamethyl-3a-(3-(2-oxopyrrolidin-1-yl)propylamino)-1-(prop-1-en-2-yl)-2,3,3a,4,5,5a,5b,6,7,7a,8,11,11a,11b,12,13,13a,13b-octadecahydro-1H-cyclopenta[a]chrysen-9-yl)benzoic acid]",< 100
10,C=C(C)[C@@H]1CC[C@]2(NCCN3CCC(F)(F)CC3)CC[C@]3(C)[C@H](CC[C@@H]4[C@@]5(C)CC=C(c6ccc(C(=O)O)cc6)C(C)(C)[C@@H]5CC[C@]43C)[C@@H]12 [Example 172],< 100
11,"C=C(C)[C@@H]1CC[C@]2(NC(=O)CN3CC(F)(F)C3)CC[C@]3(C)[C@H](CC[C@@H]4[C@@]5(C)CC=C(c6ccc(C(=O)O)cc6)C(C)(C)[C@@H]5CC[C@]43C)[C@@H]12 [Example 94, 4-((1R,3aS,5aR,5bR,7aR,11aS,11bR,13aR,13bR)-3a-(2-(3,3-difluoroazetidin-1-yl)acetamido)-5a,5b,8,8,11a-pentamethyl-1-(prop-1-en-2-yl)-2,3,3a,4,5,5a,5b,6,7,7a,8,11,11a,11b,12,13,13a,13b-octadecahydro-1H-cyclopenta[a]chrysen-9-yl)benzoic acid]",< 100
12,"C=C(C)[C@@H]1CC[C@]2(NCCN3CCN(C(=O)CC4CCCCC4)CC3)CC[C@]3(C)[C@H](CC[C@@H]4[C@@]5(C)CC=C(c6ccc(C(=O)O)cc6)C(C)(C)[C@@H]5CC[C@]43C)[C@@H]12 [Example B57, 4-((1R,3aS,5aR,5bR,7aR,11aS,11bR,13aR,13bR)-3a-((2-(4-(2-cyclohexylacetyl)piperazin-1-yl)ethyl)amino)-5a,5b,8,8,11a-pentamethyl-1-(prop-1-en-2-yl)-2,3,3a,4,5,5a,5b,6,7,7a,8,11,11a,11b,12,13,13a,13b-octadecahydro-1H-cyclopenta[a]chrysen-9-yl)benzoic acid]",< 100
13,"C=C(C)[C@@H]1CC[C@]2(NCCNCCC(=O)N(C)C)CC[C@]3(C)[C@H](CC[C@@H]4[C@@]5(C)CC=C(c6ccc(C(=O)O)cc6)C(C)(C)[C@@H]5CC[C@]43C)[C@@H]12 [Example 142, 4-((1R,3aS,5aR,5bR,7aR,11aS,11bR,13aR,13bR)-3a-(2-(3-(dimethylamino)-3-oxopropylamino)ethylamino)-5a,5b,8,8,11a-pentamethyl-1-(prop-1-en-2-yl)-2,3,3a,4,5,5a,5b,6,7,7a,8,11,11a,11b,12,13,13a,13b-octadecahydro-1H-cyclopenta[a]chrysen-9-yl)benzoic acid]",< 100

# Same assay, conditions: Renilla, NL43, luciferase activity in cells infected for 4-5 days with NLRluc recombinants, serial dilutions of inhibitor; numeric values; read-out: EC50
row,Compound,EC50 [nM]
1,"C=C(C)[C@@H]1CC[C@]2(NC(=O)NCCCN3CCCC3=O)CC[C@]3(C)[C@H](CC[C@@H]4[C@@]5(C)CC=C(c6ccc(C(=O)O)cc6)C(C)(C)[C@@H]5CC[C@]43C)[C@@H]12 [Example 29, 4-((1R,3aS,5aR,5bR,7aR,11aS,11bR,13aR,13bR)-5a,5b,8,8,11a-pentamethyl-3a-(3-(3-(2-oxopyrrolidin-1-yl)propyl)ureido)-1-(prop-1-en-2-yl)-2,3,3a,4,5,5a,5b,6,7,7a,8,11,11a,11b,12,13,13a,13b-octadecahydro-1H-cyclopenta[a]chrysen-9-yl)benzoic acid]",10
